Test results: US20100120700A1, “METHODS AND COMPOSITIONS FOR TREATING CERVICAL CANCER” (priority 2000, published 2010)
Where “and” joins values, the source holds several entries; their conditions need not be identical. Equal entries are not always repeated.

Tests used:
Assay in all cases: G assay PDZ-PL binding
MINT1 domain 1, 2 = molecular target: T1, MINT1 domain 1, 2 (Homo sapiens, UniProt Q02410); details: peptide 10 uM, protein 5
T1 construct: When more than one PDZ domain was cloned, the DNA portion cloned represents the PDZ domains and the cDNA portion located between individual domains; made in house; host or cells: E. coli (DH5alpha, BL21 or JM109), vector pGEX-3X
Procedure: (§1) (1) A PDZ-domain polypeptide is bound to a surface, e.g. a protein binding surface. In a preferred embodiment, a GST/PDZ fusion protein containing one or more PDZ domains is bound to a polystyrene 96-well plate. […] In one embodiment, the GST/PDZ fusion protein is bound via an anti-GST antibody that is coated onto the 96-well plate. Adequate binding to the plate can be achieved when: • a. 100 uL per well of 5 ug/mL goat anti-GST polyclonal antibody (Pierce) in PBS is added to a polystyrene 96-well plate (e.g., Num Polysorb) at 4° C. for 12 hours. • b. The plate is blocked by addition of 200 uL per well of PBS/BSA for 2 hours at 4° C. • c. The plate is washed 3 times with PBS. • d. 50 uL per well of 5 ug/mL GST/PDZ fusion protein) or, as a negative control, GST polypeptide alone (i.e. not a fusion protein) in PBS/BSA is added to the plate for 2 hours at 4° C. • e. The plate is again washed 3 times with PBS. […]
(§2) (3) The binding of the biotinylated peptide to the GST/PDZ fusion protein surface can be detected using a variety of methods and detectors known to one of skill in the art. In one embodiment, 100 uL per well of 0.5 ug/mL streptavidin-horse radish peroxidase (HRP) conjugate dissolved in BSA/PBS is added and allowed to react for 20 minutes at 4° C. The plate is then washed 5 times with 50 mM Tris pH 8.0 containing 0.2% Tween 20, and developed by addition of 100 uL per well of HRP-substrate solution (TMB, Dako) for 20 minutes at room temperature (RT). The reaction of the HRP and its substrate is terminated by addition of 100 uL per well of 1M sulfuric acid, and the absorbance of each well of the plate is read at 450 nm.
(§3) (4) Specific binding of a PL peptide and a PDZ domain polypeptide is determined by comparing the signal from the well(s) in which the PL peptide and PDZ domain polypeptide are combined, with the background signal(s). The background signal is the signal found in the negative control(s). Typically a specific or selective reaction will be at least twice background signal, more typically more than 5 times background, and most typically 10 or more times the background signal. In addition, a statistically significant reaction will involve multiple measurements of the reaction with the signal and the background differing by at least two standard errors, more typically four standard errors, and most typically six or more standard errors. Correspondingly, a statistical test (e.g. a T-test) comparing repeated measurements of the signal with-repeated measurements of the background will result in a p-value<0.05, more typically a p-value<0.01, and most typically a p-value<0.001 or less. As noted, in an embodiment of the “G” assay, the signal from binding of a given PL peptide to immobilized (surface bound) GST polypeptide alone is one suitable negative control (sometimes referred to as “B 1”). Because all measurement are done in multiples (i.e. at least duplicate) the arithmetic mean (or, equivalently, average.) of several measurements is used in determining the binding, and the standard error of the mean is used in determining the probable error in the measurement of the binding. The standard error of the mean of N measurements equals the square root of the following: the sum of the squares of the difference between each measurement and the mean, divided by the product of (N) and (N−1). Thus, in one embodiment, specific binding of the PDZ protein to the platebound peptide is determined by comparing the mean signal (“mean S”) and standard error of the signal (“SE”) for a particular PL-PDZ combination with the mean B1.
(§4) For convenience, the assay conditions described in this section are referred to as the “G’ assay” and the “G” assay,” with the specific conditions described in the preceding section on G assays being referred to as the “G° assay.” The “G′ assay” is identical to the “G° assay” except at step (2) the peptide concentration is 10 uM instead of 20 uM. […]

DLG1 domain 1 = molecular target: T2, DLG1 domain 1 (Homo sapiens, UniProt Q12959, R278Q); details: vs GST only well, peptide 10 uM, protein 5
T2 construct: made in house; host or cells: E. coli (DH5alpha, BL21 or JM109)
Procedure: as §1, §2, §3, §4

DLG2 domain 1 = molecular target: T3, DLG2 domain 1 (Homo sapiens, UniProt Q15700); details: peptide 10 uM, protein 5
T3 construct: made in house; host or cells: E. coli (DH5alpha, BL21 or JM109), vector pGEX-3X
Procedure: as §1, §2, §3, §4

MAGI 1 domain 2 = molecular target: T4, MAGI 1 domain 2 (Homo sapiens, UniProt Q96QZ7)
T4 construct: made in house; host or cells: E. coli (DH5alpha, BL21 or JM109)
Procedure: as §1, §2, §3, §4

FLJ11215 domain 1 = molecular target: T5, FLJ11215 domain 1 (Homo sapiens, UniProt Q9NUP9); details: peptide 10 uM, protein 5
T5 construct: made in house; host or cells: E. coli (DH5alpha, BL21 or JM109), vector pGEX-3X
Procedure: as §1, §2, §3, §4

PTPL1 domain 2 = molecular target: T6, PTPL1 domain 2 (Homo sapiens, UniProt Q12923); details: peptide 10 uM, protein 5
T6 construct: made in house; host or cells: E. coli (DH5alpha, BL21 or JM109)
Procedure: as §1, §2, §3, §4

PDZK1 domain 2, 3, 4 = molecular target: T7, PDZK1 domain 2, 3, 4 (Homo sapiens, UniProt Q5T2W1); details: peptide 10 uM, protein 5
T7 construct: When more than one PDZ domain was cloned, the DNA portion cloned represents the PDZ domains and the cDNA portion located between individual domains; made in house; host or cells: E. coli (DH5alpha, BL21 or JM109)
Procedure: as §1, §2, §3, §4

Magi2 domain 3 = molecular target: T8, Magi2 domain 3 (Homo sapiens, UniProt Q86UL8); details: peptide 10 uM, protein 5
T8 construct: made in house; host or cells: E. coli (DH5alpha or BL-21)
Procedure: as §1, §2, §3, §4

TIP1 domain 1 = molecular target: T9, TIP1 domain 1 (Homo sapiens, UniProt O14907); details: vs GST only well, peptide 10 uM, protein 5
T9 construct: made in house; host or cells: E. coli (DH5alpha, BL21 or JM109)
Procedure: as §1, §2, §3, §4

KIAA1719 domain 5 = molecular target: T10, KIAA1719 domain 5 (Homo sapiens, UniProt Q9C0E4); details: peptide 10 uM, protein 5
T10 construct: made in house; host or cells: E. coli (DH5alpha or BL-21)
Procedure: as §1, §2, §3, §4

NeDLG domain 2 = molecular target: T11, NeDLG domain 2 (Homo sapiens, UniProt Q92796); details: vs GST only well, peptide 10 uM, protein 5
T11 construct: made in house; host or cells: E. coli (DH5alpha, BL21 or JM109)
Procedure: as §1, §2, §3, §4

INADL domain 3 = molecular target: T12, INADL domain 3 (Homo sapiens, UniProt Q8NI35); details: peptide 10 uM, protein 5
T12 construct: made in house; host or cells: E. coli (DH5alpha, BL21 or JM109)
Procedure: as §1, §2, §3, §4

T1 sequence (Q02410 651-828 limits assumed): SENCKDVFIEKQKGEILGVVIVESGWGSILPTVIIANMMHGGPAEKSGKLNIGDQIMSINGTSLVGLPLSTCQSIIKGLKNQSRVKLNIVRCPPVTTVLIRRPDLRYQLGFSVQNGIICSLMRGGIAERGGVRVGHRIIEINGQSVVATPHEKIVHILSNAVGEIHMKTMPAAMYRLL
T8 sequence (Q86UL8 with tags, fused parts or gaps): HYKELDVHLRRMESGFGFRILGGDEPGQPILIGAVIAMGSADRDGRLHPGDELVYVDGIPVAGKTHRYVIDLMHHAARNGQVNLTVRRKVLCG
T5 sequence (Q9NUP9 86-182): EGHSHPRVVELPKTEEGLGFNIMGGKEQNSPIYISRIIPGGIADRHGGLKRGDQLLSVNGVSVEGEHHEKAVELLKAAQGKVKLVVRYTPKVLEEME
T4 sequence (Q96QZ7 463-566): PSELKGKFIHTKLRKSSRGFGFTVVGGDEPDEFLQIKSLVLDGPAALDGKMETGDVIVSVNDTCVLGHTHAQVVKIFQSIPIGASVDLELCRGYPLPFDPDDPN
T12 sequence (Q8NI35 with tags, fused parts or gaps): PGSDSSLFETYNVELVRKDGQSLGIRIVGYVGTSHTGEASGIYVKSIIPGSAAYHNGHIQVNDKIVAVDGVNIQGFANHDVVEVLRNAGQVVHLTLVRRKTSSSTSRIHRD
T11 sequence (Q92796 with tags, fused parts or gaps): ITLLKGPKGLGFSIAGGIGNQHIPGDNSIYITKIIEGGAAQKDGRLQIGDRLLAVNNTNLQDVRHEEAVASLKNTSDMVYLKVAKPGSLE
T10 sequence (Q9C0E4 with tags, fused parts or gaps): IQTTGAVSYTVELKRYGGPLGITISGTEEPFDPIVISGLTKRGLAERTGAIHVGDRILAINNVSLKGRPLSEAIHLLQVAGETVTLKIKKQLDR
T6 sequence (Q12923 1364-1458): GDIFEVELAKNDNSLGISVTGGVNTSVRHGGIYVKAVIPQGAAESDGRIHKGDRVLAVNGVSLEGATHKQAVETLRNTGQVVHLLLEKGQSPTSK
T9 sequence (O14907 14-116): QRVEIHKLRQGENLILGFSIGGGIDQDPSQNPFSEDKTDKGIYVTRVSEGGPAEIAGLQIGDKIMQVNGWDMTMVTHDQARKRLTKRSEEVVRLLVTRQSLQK

For “20 mer peptide corresponding to the C-terminus of HPV16 E6 (PDZ ligand), biotinylated in binding assays; ends SSRTRRETQL (SEQ ID NO: 13) [HPV E6 #16]”, the “Ave OD” value (MINT1 domain 1, 2; A450 nm) was 0.3655 and 0.6075, the “OD S/N” value (MINT1 domain 1, 2; vs GST only well) was 1.42 and 2.11 and the “OD S/N” value (DLG1 domain 1) was 2.98 and 4.18. The “Ave OD” value (DLG2 domain 1; A450 nm) was 0.793, the “OD S/N” value (DLG2 domain 1; vs GST only well) was 3.59 and the “Ave OD” value (MAGI 1 domain 2; A450 nm, MAGI 1 domain 2, peptide 10 uM, protein 5) was 4.1125. For the same substance, the “binding to MAGI-1 second PDZ domain (qualitative)” value (MAGI 1 domain 2; G assay / Matrix TM assay, called MAGI 1 domain 1 in b521 (nomenclature b497)) was “bound with the highest relative affinity”, the “OD S/N” value (MAGI 1 domain 2; vs GST only well, MAGI 1 domain 2, peptide 10 uM, protein 5) was 19.54 and the “Ave OD” value (FLJ11215 domain 1; A450 nm) was 0.449 and 0.666. The “OD S/N” value (FLJ11215 domain 1; vs GST only well) was 2.77 and 2.74, the “Ave OD” value (PTPL1 domain 2; A450 nm) was 0.348 and the “OD S/N” value (PTPL1 domain 2; vs GST only well) was 1.80. For the same substance, the “Ave OD” value (PDZK1 domain 2, 3, 4; A450 nm) was 0.518, the “OD S/N” value (PDZK1 domain 2, 3, 4; vs GST only well) was 2.64 and the “Ave OD” value (Magi2 domain 3; A450 nm) was 0.4165 and 0.359. For the same substance, the “OD S/N” value (Magi2 domain 3; vs GST only well) was 1.98 and 1.65, the “OD S/N” value (TIP1 domain 1) was 8.24 and 5.67 and the “Ave OD” value (KIAA1719 domain 5; A450 nm) was 0.3895. For the same substance, the “OD S/N” value (KIAA1719 domain 5; vs GST only well) was 1.81, the “OD S/N” value (NeDLG domain 2) was 2.20 and 3.99 and the “Ave OD” value (INADL domain 3; A450 nm) was 0.485. The “OD S/N” value (INADL domain 3; vs GST only well) was 1.86.
